# Results taken from patent US20220144812A1, “QUINOLINE DERIVATIVES AND THEIR USE FOR THE TREATMENT OF CANCER” (Epizyme, Inc., priority 2019, published 2022).
# Read-outs that look alike come from different tables or passages of the source.
# What was measured:
# [1] = molecular target: T1, CREBBP (1084-1701) (Homo sapiens, UniProt Q92793); assay: Biochemical assay for CREBBP (1084-1701), SAMDI; conditions: SAMDI, read-out: CREBBP Biochemistry IC50
# T1 construct: measured in the following biochemical assay using CREBBP (1084-1701); purchased
# T1 sequence (Q92793 1084-1701): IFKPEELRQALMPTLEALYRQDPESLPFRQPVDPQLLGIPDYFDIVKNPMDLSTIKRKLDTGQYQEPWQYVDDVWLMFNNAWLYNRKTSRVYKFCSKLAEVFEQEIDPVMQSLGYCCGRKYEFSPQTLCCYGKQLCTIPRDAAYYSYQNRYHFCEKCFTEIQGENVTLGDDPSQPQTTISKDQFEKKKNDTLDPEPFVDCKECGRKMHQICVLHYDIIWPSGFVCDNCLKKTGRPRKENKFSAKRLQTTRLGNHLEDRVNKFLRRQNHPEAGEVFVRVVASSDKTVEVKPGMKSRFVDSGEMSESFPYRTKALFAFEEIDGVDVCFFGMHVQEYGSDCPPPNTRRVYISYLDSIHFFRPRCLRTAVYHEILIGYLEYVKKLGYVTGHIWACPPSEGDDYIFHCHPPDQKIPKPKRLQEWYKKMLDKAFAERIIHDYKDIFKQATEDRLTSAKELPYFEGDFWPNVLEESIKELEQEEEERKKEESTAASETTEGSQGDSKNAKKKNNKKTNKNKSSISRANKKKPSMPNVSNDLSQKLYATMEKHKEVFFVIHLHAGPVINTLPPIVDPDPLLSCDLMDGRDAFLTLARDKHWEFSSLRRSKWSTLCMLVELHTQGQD
# Summary of the method: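 Acetyltransferase activity measured by SAMDI mass spectrometry after capture on biochip. Enzyme sat with compound 30 min at RT before acetyl-CoA and biotinylated H3 11-25 (K14R, K23R) peptide were added for 30 min at RT. Formic acid quench, bicarbonate neutralisation; IC50 values reported.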
# [2] = tested on: H3K18Ac in HB-CLS-2 cells; assay: H3K18AC in-cell western (ICW) assay; format: cell-based; conditions: H3K18Ac in-cell western; read-out: CREBBP ICW IC50
# Summary of the method: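 In-cell western: after methanol fixation, blocking, overnight 4° C anti-H3K18Ac staining, then 800CW secondary plus DRAQ5 for DNA content, integrated intensities were scanned at 800 and 700 nm. Before this, compound exposure lasted 2 hr at 37° C in HB-CLS-2 cells plated 16–24 hours earlier. Values expressed as IC50 (μM).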
# [3] = tested on: 647V cells; assay: High throughput proliferation (HTP) assay; format: cell-based; conditions: high throughput proliferation, read-out: CREBBP HTP IC50
# Summary of the method: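 Proliferation IC50 (micromolar) derived from a 7-day CellTiter-Glo viable-cell readout in 647V cells exposed, in triplicate, to rising compound concentrations; cells grown in DMEM plus 15% heat-inactivated FBS at 37° C under 5% CO2.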
# [4] = molecular target: T2, EP300 (P300(1048-1664)) (Homo sapiens, UniProt Q09472); assay: Biochemical assay for EP300, SAMDI; conditions: EP300, SAMDI; read-out: EP300 Biochemistry IC50
# T2 construct: P300(1048-1664)
# T2 sequence (Q09472 1048-1664): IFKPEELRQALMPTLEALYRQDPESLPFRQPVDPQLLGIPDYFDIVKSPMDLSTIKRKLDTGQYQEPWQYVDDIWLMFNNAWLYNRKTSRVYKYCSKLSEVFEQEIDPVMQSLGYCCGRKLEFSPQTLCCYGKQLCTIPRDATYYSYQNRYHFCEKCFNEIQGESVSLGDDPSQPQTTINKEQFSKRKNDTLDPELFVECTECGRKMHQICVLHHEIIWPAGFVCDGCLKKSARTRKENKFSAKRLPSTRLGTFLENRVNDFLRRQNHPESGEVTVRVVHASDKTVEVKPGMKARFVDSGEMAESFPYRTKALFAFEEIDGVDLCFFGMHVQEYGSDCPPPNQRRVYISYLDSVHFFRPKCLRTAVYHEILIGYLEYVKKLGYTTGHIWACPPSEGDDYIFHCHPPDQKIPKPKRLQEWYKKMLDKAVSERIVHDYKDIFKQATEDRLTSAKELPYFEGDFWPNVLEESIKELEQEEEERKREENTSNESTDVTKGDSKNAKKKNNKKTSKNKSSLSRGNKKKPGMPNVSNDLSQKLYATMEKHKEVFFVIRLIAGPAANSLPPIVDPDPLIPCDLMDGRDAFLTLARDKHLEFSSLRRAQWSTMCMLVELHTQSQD
# Text: The following example describes materials and methods relating to a biochemical assay for EP300. IC50 values (micromolar (μM)) are summarized in Table 1, Table 2, and Table 3 under the column labeled: “EP300 Biochemistry IC50 (micromolar).”
SMILES,IC50 [1] [nM],IC50 [2] [nM],"IC50 ([3]; Homo sapiens, 647-V) [nM]",IC50 [4] [nM],IC50 [3] [nM]
CCn1ncc(CN(C)C(=O)c2nc(-c3ccc(OCCCNC)c(C(C)(C)C)c3)nc3ccc(Cl)cc23)c1C [Compound 462],9700,16400,1410,15800,–
CCn1ncc(CN(C)C(=O)c2nc(-c3cc(C)c4c(c3)NC(=O)C4)nc3ccc(Cl)cc23)c1C [Compound 463],2570,1400,1510,993,–
CCn1ncc(CN(C)C(=O)c2nc(-c3ccc(OCCNC)c(Cl)c3)nc3ccc(CN(C)C)cc23)c1C [Compound 464],38000,20000,2050,19300,–
CCn1ncc(CN(C(=O)c2cc(-c3ccc(NCCNC)c(C)n3)nc3ccc(Cl)cc23)C(C)C)c1C [Compound 465],364,4870,1930,1480,–
CCn1ncc(CN(C)C(=O)c2nc(-c3cc4c(N)noc4cc3C)nc3ccc(Cl)cc23)c1C [Compound 466],29.5,202,189,71.5,–
CCn1ncc(C(=O)N(C)Cc2cc(-c3ccc(NCCNC)c(C)n3)nc3ccc(Cl)cc23)c1C [Compound 467],≥ 50000,20000,5580,34200,–
CCn1ncc(CN(C)C(=O)c2nc(-c3cc(C)c4c(=O)[nH][nH]c4c3)nc3ccc(Cl)cc23)c1C [Compound 468],10.2,213,158,13.5,–
CCn1ncc(CN(C)C(=O)c2nc(-c3cc(C)nc(NCCN(C)C)c3)nc3ccc(Cl)cc23)c1C [Compound 469],19.3,56.1,29.2,10.9,–
CCn1ncc(CN(C)C(=O)c2nc(-c3cc(C)nc(NCCN(C)C)c3)nc3ccc(Cl)cc23)c1C [Compound 470],18.8,49,–,9.9,25.4
CCn1ncc(CN(C)C(=O)c2cc(-c3ccc(NCCNC)c(C(F)(F)F)n3)nc3ccc(Cl)cc23)c1C [Compound 471],35.8,88.6,29.2,9.5,–
CCn1ncc(CN(C)C(=O)c2cc(-c3ccc(NC4CCNC4)c(C)n3)nc3ccc(Cl)cc23)c1C (centres unmarked) [Compound 472],25.4,132,48,10,–
CCn1ncc(CN(C)C(=O)c2cc(-c3cc(CNC)cc(C)n3)nc3ccc(Cl)cc23)c1C [Compound 473],322,730,380,392,–
CCn1ncc(CN(C)C(=O)c2cc(-c3cnc(N)c(C)n3)nc3ccc(Cl)cc23)c1C [Compound 474],22800,6530,12800,14500,–
CCn1ncc(CN(C)C(=O)c2nc(-c3cc(C#N)c4nc[nH]c4c3)nc3ccc(COC)cc23)c1C [Compound 475],920,888,757,974,–
CCn1ncc(CN(C)C(=O)c2nc(-c3cc(C)cc(N[C@H]4CCNC4)c3)nc3ccc(Cl)cc23)c1C [Compound 476],28.5,378,204,6.4,–
CCc1ncc(CN(C)C(=O)c2cc(-c3ccc(OCC(O)CNC)c(C)n3)nc3ccc(COC)cc23)n1C (centres unmarked) [Compound 477],141,2070,1280,47.6,–
CCn1ncc(CN(C)C(=O)c2nc(-c3cc(C)cc(NC4CCNC4)c3)nc3ccc(COC)cc23)c1C (centres unmarked) [Compound 479],18,70.8,43.6,10.1,–
CCc1nc(-c2cc(C(=O)N(C)Cc3cnc(CC)n3C)c3cc(COC)ccc3n2)ccc1NCCNC [Compound 486],59.8,314,89.5,30.1,–
CCn1ncc(CN(C)C(=O)c2cc(-c3ccc(NCCNC)c(C)n3)nc3cc(COC)ccc23)c1C [Compound 492],7240,2400,1670,5990,–
CCn1ncc(CN(C)C(=O)c2nc(-c3cc(-c4ncc[nH]4)n(C)n3)nc3ccc(Cl)cc23)c1C [Compound 495],29.3,153,140,16.3,–
CCn1ncc(CN(C)C(=O)c2cc(-c3ccc(OCC(O)CNC)c(C)n3)nc3ccc(COC)cc23)c1C (centres unmarked) [Compound 496],167,937,689,59.9,–
CCn1ncc(CN(C)C(=O)c2cc(-c3ccc(N4CC(N(C)C)C4)c(C)n3)nc3ccc(Cl)cc23)c1C [Compound 497],846,1630,2560,661,–
CCn1ncc(CN(C)C(=O)c2nc(-c3ccc(OCCNC)c(Cl)c3)nc3ccc(C4COC4)cc23)c1C [Compound 498],5080,5550,2880,4980,–
CCn1ncc(CN(C)C(=O)c2nc(-c3cc(N)c4cn[nH]c4c3)nc3ccc(COC)cc23)c1C [Compound 499],14.9,137,183,3.5,–
CCc1ncc(CN(C)C(=O)c2nc(-c3cc(N)c4cn[nH]c4c3)nc3ccc(COC)cc23)n1C [Compound 500],25.3,371,409,28.5,–
CCc1ncc(CN(C)C(=O)c2nc(-c3cc(C)cc(NC4CCNC4)c3)nc3ccc(COC)cc23)n1C (centres unmarked) [Compound 501],148,3890,1150,36.8,–
CCn1ncc(CN(C)C(=O)c2cc(-c3ccc(N(C)C)nn3)nc3ccc(Cl)cc23)c1C [Compound 502],10600,2530,9010,4850,–
CCn1ncc(CN(C)C(=O)c2nc(-c3ccc(OCCNC)c(Cl)c3)nc3ccc(CS(C)(=O)=O)cc23)c1C [Compound 503],9850,17100,7610,9280,–
CCn1ncc(CN(C)C(=O)c2cc(-c3ccc(NCCNC)nn3)nc3ccc(Cl)cc23)c1C [Compound 504],5780,3990,3730,2000,–
